Tests used:
Assay type in all cases: cell-based
[1] = system: R848-induced IL-6 secretion in human peripheral blood mononuclear cells (PBMCs); test: Inhibition of R848-induced IL-6 secretion in human PBMCs (IL-6 ELISA); details: PBMC, R848 2.5 μg/mL, 20 h pre-incubation, 24 h stimulation
Experimental: This experiment was carried out in RPMI 1640 medium containing 10% FBS and 1% penicillin/streptomycin, with each of the compounds at an initial test concentration of 1 μM. The compound was dissolved in DMSO to prepare a stock solution, which was serially diluted into a series of working solutions with a 4-fold concentration gradient using the culture medium and then added to a 96-well plate at 10 μL per well. PBMCs (Batch No.: P122101102C; Milecell Biotechnology Inc.) were counted and diluted to a cell concentration of 1.25×10^6 cells/mL, and then added to the aforementioned compound-containing 96-well plate at 160 μL per well. The system was mixed well and incubated in a 5% CO2 incubator at 37° C. for 20 h. Then 10 μL of R848 (final concentration: 2.5 μg/mL) was added, and the culture was continued for 24 h in a 5% CO2 incubator at 37° C. After incubation, the 96-well plate was centrifuged at 2000 rpm for 4 min. The supernatant was collected and diluted 120-fold, then detected using an IL-6 ELISA kit. The OD450 values were read, and converted to IL-6 concentrations based on a standard curve.

[2] = system: LPS/IL-1β-induced IL-6 secretion in human peripheral blood mononuclear cells (PBMCs); test: Inhibition of LPS/IL-1β-induced IL-6 secretion in human PBMCs (IL-6 ELISA); details: PBMC, LPS 10 ng/mL + IL-1β 20 ng/mL, 24 h pre-incubation, 20 h stimulation
Experimental: This experiment was carried out in RPMI 1640 medium containing 10% FBS and 1% penicillin/streptomycin, with each of the compounds at an initial test concentration of 1 μM.
The compound was dissolved in DMSO to prepare a stock solution, which was serially diluted into some working solutions with a 5-fold concentration gradient using the culture medium and then added to a 96-well plate at 10 μL per well. PBMCs (Batch No.: P122101102C; Milecell Biotechnology Inc.) were counted and diluted to a cell concentration of about 1.3×10^6 cells/mL, and then added to the aforementioned compound-containing 96-well plate at 150 μL per well. The system was mixed well and incubated in a 5% CO2 incubator at 37° C. for 24 h. Then 5 μL of LPS (final concentration: 10 ng/mL) and 5 μL of IL-1β (final concentration: 20 ng/mL) were added to each well, respectively, and the culture was continued for 20 h in a 5% CO2 incubator at 37° C. After incubation, the 96-well plate was centrifuged at 2000 rpm for 4 min. The supernatant was collected and diluted 200-fold, then detected using an IL-6 ELISA kit. The OD450 values were read, and converted to IL-6 concentrations based on a standard curve. The dose-response curves were fitted using GraphPad 8.0 to calculate the IC50 values.

IRAK4 = target: T1, IRAK4 (Homo sapiens, UniProt Q9NWZ3); test: IRAK4 protein degradation in THP1 cells (Western blot); details: THP-1 cells, 24 h
T1 construct: Effect of the Compounds on IRAK4 Protein Degradation in THP1 Cells; endogenous in cells; host or cells: THP-1 cells
T1 sequence (Q9NWZ3 1-460): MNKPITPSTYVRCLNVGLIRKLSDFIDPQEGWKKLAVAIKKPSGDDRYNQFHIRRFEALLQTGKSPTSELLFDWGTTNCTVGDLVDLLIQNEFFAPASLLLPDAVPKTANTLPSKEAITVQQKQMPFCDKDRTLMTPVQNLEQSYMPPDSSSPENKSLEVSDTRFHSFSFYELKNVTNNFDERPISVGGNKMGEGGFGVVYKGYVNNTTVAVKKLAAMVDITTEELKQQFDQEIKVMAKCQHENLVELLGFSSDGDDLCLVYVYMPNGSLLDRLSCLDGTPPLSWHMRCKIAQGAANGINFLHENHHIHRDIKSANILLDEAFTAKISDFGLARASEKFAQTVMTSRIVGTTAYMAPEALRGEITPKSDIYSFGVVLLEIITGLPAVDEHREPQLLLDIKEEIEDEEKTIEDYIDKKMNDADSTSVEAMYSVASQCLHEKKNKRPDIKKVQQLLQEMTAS
Experimental: THP-1 cells were seeded into a 96-well cell culture plate, with 2×10^5 cells and 90 μL of culture medium per well. The cell culture plate was cultured in an incubator with 5% CO2 at 37° C. overnight. The compound was dissolved in DMSO to prepare a stock solution, which was serially diluted into a series of working solutions with a 5-fold concentration gradient using the culture medium and then added to the aforementioned 96-well plate at 10 μL per well. The cell culture plate was further incubated for 24 h in a 5% CO2 incubator at 37° C. After incubation, the 96-well plate was centrifuged and the supernatant was discarded, followed by adding 40 μL of cell lysis buffer containing […]/phosphatase inhibitors to each well for sufficient lysis on an ice bath. Protein quantification was performed using the BCA protein quantification kit, followed by the preparation of Western blot samples. […] After electrophoresis, protein transfer was performed using a PVDF membrane under ice bath conditions for 1 h. After the transfer was completed, the PVDF membrane was blocked with gentle shaking in 5% skim milk at room temperature for 1 h. After blocking, the PVDF membrane was incubated with the primary antibody overnight with gentle shaking at 4° C. The PVDF membrane was washed 3 times with TBST, then the secondary antibody was added and incubated for 1 h with gentle shaking at room temperature, followed by washing of the PVDF membrane with TBST for 3 times. After the washes were completed, the chemiluminescent substrate was added; the PVDF membrane was scanned using a Clinx imager, semi-quantitative analysis was performed with ImageJ software, and the DC50 was calculated using GraphPad Prism 8.0.

Row | SMILES | IC50 [1] [nM] | IC50 [2] [nM] | DC50 (IRAK4) [nM]
1 | CN(C)c1cc2nn([C@H]3CC[C@H](CN4CCC(c5nc6cc(C7CCC(=O)NC7=O)cc(F)c6o5)CC4)CC3)cc2cc1NC(=O)c1cnn2cccnc12 (stereo partly drawn) [TM-238] | 4.18 | – | –
2 | CN(C)c1cc2nn([C@H]3CC[C@H](CN4CC[C@@H](n5cc6c(F)cc(N7CCC(=O)NC7=O)cc6n5)C4)CC3)cc2cc1NC(=O)c1cnn2cccnc12 [TM-217] | 8.59 | – | –
3 | CN(C)c1cc2nn([C@H]3CC[C@H](CN4C[C@@H](F)[C@H](n5cc6c(F)cc(C7CCC(=O)NC7=O)cc6n5)C4)CC3)cc2cc1NC(=O)c1cnn2cccnc12 (stereo partly drawn) [TM-237] | 25 | 16.5 | –
4 | Cn1c(=O)n(C2CCC(=O)NC2=O)c2cccc(C#CCOC3CCN(C[C@H]4CC[C@H](n5cc(NC(=O)c6cnn7ccc(N8C[C@H]9C[C@@H]8CO9)nc67)c(C(F)F)n5)CC4)CC3)c21 (stereo partly drawn) [Positive compound, reference compound] | 12.1 | 2.99 | –
5 | CN(C)c1nc2nc([C@H]3CC[C@H](CN4C[C@@H](n5cc6cc(N7CCC(=O)NC7=O)ccc6n5)[C@@H](F)C4)CC3)cn2cc1NC(=O)c1cnn2cccnc12 [TM-236] | 22.4 | – | –
6 | CN(C)c1cc2nn(C3CCC(CN4C[C@@H](F)[C@@H](n5cc6cc(N7CCC(=O)NC7=O)ccc6n5)C4)CC3)cc2cc1NC(=O)c1cnn2cccnc12 (stereo partly drawn) [TM-206] | 5.49 | – | –
7 | CN(C)c1cc2nn([C@H]3CC[C@H](CN4C[C@H](F)[C@@H](n5cc6c(F)cc(N7CCC(=O)NC7=O)cc6n5)C4)CC3)cc2cc1NC(=O)c1cnn2cccnc12 [TM-220] | 8.1 | – | –
8 | CN(C)c1cc2nc([C@H]3CC[C@H](CN4CCC(n5cc6c(F)cc(N7CCC(=O)NC7=O)cc6n5)CC4)CC3)cn2nc1NC(=O)c1cnn2cccnc12 [TM-228] | 14.7 | – | –
9 | CN(C)c1cc2nn([C@H]3CC[C@H](CN4C[C@@H](n5cc6cc(N7CCC(=O)NC7=O)c(F)cc6n5)[C@@H](F)C4)CC3)cc2cc1NC(=O)c1cnn2cccnc12 [TM-232] | 18.9 | – | –
10 | CN(C)c1cc2nn([C@H]3CC[C@H](CN4CC[C@H](n5cc6c(F)cc(N7CCC(=O)NC7=O)cc6n5)C4)CC3)cc2cc1NC(=O)c1cnn2cccnc12 [TM-216] | 13.4 | – | –
11 | CN(C)c1cc2nn([C@H]3CC[C@H](CN4CC[C@H](c5nc6cc(N7CCC(=O)NC7=O)ccc6o5)C4)CC3)cc2cc1NC(=O)c1cnn2cccnc12 [TM-227] | 13.8 | – | –
12 | CN(C)c1cc2nn([C@H]3CC[C@H](CN4C[C@@H](n5cc6c(F)cc(N7CCC(=O)NC7=O)cc6n5)[C@@H](F)C4)CC3)cc2cc1NC(=O)c1cnn2cccnc12 [TM-218] | 15.6 | – | –
13 | CN(C)c1cc2nn([C@H]3CC[C@H](CN4C[C@H](F)[C@@H](n5cc6cc(N7CCC(=O)NC7=O)ccc6n5)C4)CC3)cc2cc1NC(=O)c1cnn2cccnc12 [TM-207] | 10.3 | 40.9 | –
14 | CN(C)c1cc2nn([C@H]3CC[C@H](CN4C[C@H](F)[C@@H](n5cc6cc(F)c(N7CCC(=O)NC7=O)cc6n5)C4)CC3)cc2cc1NC(=O)c1cnn2cccnc12 [TM-223] | 10.8 | – | –
15 | CN(C)c1cc2nn([C@@H]3CC[C@@H](CN4CC[C@@H](n5cc6c(F)cc(N7CCC(=O)NC7=O)cc6n5)C4)OC3)cc2cc1NC(=O)c1cnn2cccnc12 [TM-225] | 12.3 | – | –
16 | O=C1CCC(c2ccc3cn([C@@H]4CCN(C[C@H]5CC[C@H](n6cc7cc(NC(=O)c8cnn9cccnc89)c(F)cc7n6)CC5)C4)nc3c2)C(=O)N1 (stereo partly drawn) [TM-222] | 14 | – | –
17 | CN(C)c1cc2nc([C@H]3CC[C@H](CN4C[C@@H](n5cc6cc(N7CCC(=O)NC7=O)ccc6n5)[C@@H](F)C4)CC3)cn2nc1NC(=O)c1cnn2cccnc12 [TM-229] | 19.5 | – | –
18 | CN(C)c1cc2nn([C@H]3CC[C@H](CN4C[C@@H](F)[C@@H](n5cc6c(F)cc(N7CCC(=O)NC7=O)cc6n5)C4)CC3)cc2cc1NC(=O)c1cnn2cccnc12 [TM-219] | 14.8 | – | –
19 | CN(C)c1cc2nn([C@H]3CC[C@H](CN4CC[C@H](n5cc6cc(N7CCC(=O)NC7=O)c(F)cc6n5)[C@H](F)C4)CC3)cc2cc1NC(=O)c1cnn2cccnc12 [TM-130] | – | 5.12 | 4.26
20 | C[C@@H]1CN(C[C@H]2CC[C@H](n3cc4cc(NC(=O)c5cnn6cccnc56)c(N(C)C)cc4n3)CC2)CC[C@H]1n1cc2ccc(C3CCC(=O)NC3=O)cc2n1 (stereo partly drawn) [TM-142] | – | 0.88 | 0.77
21 | CN(C)c1cc2nn([C@H]3CC[C@H](CN4CCC5(CC4)C[C@@H](n4cc6cc(C7CCC(=O)NC7=O)c(F)cc6n4)CO5)CC3)cc2cc1NC(=O)c1cnn2cccnc12 (stereo partly drawn) [TM-141] | – | 4.49 | 4.33
22 | CN(C)c1cc2nn([C@H]3CC[C@H](CN4CC[C@H](n5cc6cc(N7CCC(=O)NC7=O)c(F)cc6n5)[C@@H](F)C4)CC3)cc2cc1NC(=O)c1cnn2cccnc12 [TM-131] | – | 5.07 | 0.81
23 | CN(C)c1cc2nn([C@H]3CC[C@H](CN4CC5(CCN(c6nc7ccc(N8CCC(=O)NC8=O)cc7s6)CC5)C4)CC3)cc2cc1NC(=O)c1cnn2cccnc12 [TM-67] | – | 4.01 | 19.9
24 | CN(C)c1cc2nn([C@H]3CC[C@H](CN4CCN(c5nc6cc(C7CCC(=O)NC7=O)ccc6o5)CC4)CC3)cc2cc1NC(=O)c1cnn2cccnc12 (stereo partly drawn) [TM-106] | – | 2.52 | 3.82
25 | CN(C)c1cc2nn(C3CCN(C[C@H]4CC[C@H](n5cc6cc(C7CCC(=O)NC7=O)ccc6n5)CC4)CC3)cc2cc1NC(=O)c1cnn2cccnc12 (stereo partly drawn) [TM-7] | – | 0.18 | 3.73
26 | CN(C)c1cc2nn([C@H]3CC[C@H](CN4CCC(n5cc6cc(N7CCC(=O)NC7=O)c(F)cc6n5)CC4)CC3)cc2cc1NC(=O)c1cnn2cccnc12 [TM-9] | – | 2.03 | 5.41
27 | CN(C)c1cc2nn([C@H]3CC[C@H](CN4CC[C@H](n5cc6cc(N7CCC(=O)NC7=O)ccc6n5)[C@H](F)C4)CC3)cc2cc1NC(=O)c1cnn2cccnc12 [TM-18] | – | 3.72 | 1.2
28 | CN(C)c1cc2nn([C@@H]3CC[C@@H](CN4CC[C@H](n5cc6c(F)cc(N7CCC(=O)NC7=O)cc6n5)C4)OC3)cc2cc1NC(=O)c1cnn2cccnc12 [TM-224] | 15.5 | – | –
29 | CN(C)c1cc2nn([C@H]3CC[C@H](CN4CC[C@@H](c5nc6cc(N7CCC(=O)NC7=O)ccc6o5)C4)CC3)cc2cc1NC(=O)c1cnn2cccnc12 [TM-226] | 4.28 | – | –
30 | CN(C)c1cc2nn([C@H]3CC[C@H](CN4CC[C@@H](n5cc6c(F)cc(C7CCC(=O)NC7=O)cc6n5)C4)CC3)cc2cc1NC(=O)c1cnn2cccnc12 (stereo partly drawn) [TM-235] | 6.08 | – | –

From patent US20260216348A1, “IRAK DEGRADATION AGENT AND USE THEREOF” (Increland, priority 2023, published 2026)
